Experimental data published in US20220193202A1, “PARATHYROID HORMONE DERIVATIVE IN DIMERIC FORM OF PARATHYROID HORMONE FRAGMENT AND PHARMACEUTICAL COMPOSITION FOR PREVENTION OR TREATMENT OF BONE DISEASES COMPRISING SAME” (GACHON UNIVERSITY OF INDUSTRY-ACADEMIC COOPERATION …, priority 2019, published 2022).

Key:
Type in all cases: in vivo, C57BL6 male mice
fracture animal model [1] = test: IVIS imaging of fracture site in fracture animal model; settings: 100 μg/kg subcutaneously daily Day 1 to Day 13 after fracture surgery; imaged Day 4, 7, 11, 14
Protocol: Five 10-week-old C57BL6 male mice were prepared for each group, and fracture model surgery was performed in the following manner (see FIG. 3). In particular, 9 days before (-D9) and 6 days before (-D6) prior to fracture model surgery (DO) in mice of each group, infrared fluorescent dyes (IR Dyes, Infra-Red dyes) were administered through a tail vein of the mice. Then, the mice were general anesthetized using isoflurane containing oxygen (O2) for fracture model surgery, and a left hind limb was shaved and sterilized for surgery. An incision of about 15 mm was made in the left hind limb in the longitudinal direction, and the tibia was exposed by obtuse-angled resection of the muscle. Then, transverse osteotomy was performed using disc-shaped dental steel bars at the midpoint of the tibia. After repositioning the fracture site, the entire length of a bone marrow lumen was made internally stabilized. […] On Day 4, Day 7, Day 11, and Day 14 after the surgery, fracture sites of mice per each group were photographed and analyzed using IVIS Lumina XR (Caliper Life Sciences, USA) equipment and Living Image software. The results as shown in FIG. 4 confirmed that when the dimeric [[…]]PTH(1-34) was administered, an intensity of fluorescence was increased at the site where the fracture was healing. […] Therefore, intensifying of the fluorescence means that bone formation increased.

[2] = tested on: trabecular bones of the femurs; test: micro-CT of femur of opposite limb (trabecular bone formation); settings: 100 μg/kg subcutaneously daily Day 1 to Day 13, Day 14, compared with control, PTH(1-34) and monomeric [Cys25]PTH(1-34) groups
Protocol: (§1) Five 10-week-old C57BL6 male mice were prepared for each group, and fracture model surgery was performed in the following manner (see FIG. 3). In particular, 9 days before (-D9) and 6 days before (-D6) prior to fracture model surgery (DO) in mice of each group, infrared fluorescent dyes (IR Dyes, Infra-Red dyes) were administered through a tail vein of the mice. Then, the mice were general anesthetized using isoflurane containing oxygen (O2) for fracture model surgery, and a left hind limb was shaved and sterilized for surgery. An incision of about 15 mm was made in the left hind limb in the longitudinal direction, and the tibia was exposed by obtuse-angled resection of the muscle. Then, transverse osteotomy was performed using disc-shaped dental steel bars at the midpoint of the tibia. After repositioning the fracture site, the entire length of a bone marrow lumen was made internally stabilized. After washing it with saline, the skin was sutured with nylon sutures. In particular, the fracture animal models prepared in Example 2 was divided into a control group, PTH(1-34), monomeric [[…]]PTH(1-34), and dimeric [[…]]PTH(1-34) administration groups (n=5 animals per group). […] In addition, the femurs of an opposite limb of the animal models were collected and analyzed by micro-CT equipment to evaluate the degree of bone formation in the trabecular bones of the femurs.

fracture animal model [3] = test: 3D-micro CT of tibia including fracture site (callus formation); settings: 100 μg/kg subcutaneously daily Day 1 to Day 13; tibia collected Day 14
Protocol: as §1, with “The collected shin bones” for “In addition, the femurs of an opposite limb of the animal models”, “imaged” for “collected”, “using 3D-micro CT (Microfocus X-ray CT system SMX-90CT, Shimadzu, Japan) equipment.” for “by micro-CT equipment to evaluate the degree of bone formation in the trabecular bones of the femurs.”

dimeric [Cys25]PTH(1-34): Dimeric form of parathyroid hormone fragment PTH(1-34) with Arg25 substituted by Cys (SEQ ID NO: 1), disulfide bond between cysteines
bone formation, average of photon flux (FIG. 5) (fracture animal model [1]): significantly increased
intensity of fluorescence at the site where the fracture was healing (IVIS imaging, FIG. 4) (fracture animal model [1]): increased
bone formation in the trabecular bones of the femurs (micro-CT, FIG. 8) [2]: greatest increase
callus formation (3D-micro CT, FIG. 6) (fracture animal model [3]): promoted
callus volume (FIG. 7) (fracture animal model [3]): notably increased
